# Patent US7439372B2, “Therapeutic compounds” (Allergan, Inc., priority 2006, dated 2008)
# What was measured:
# [1] = Intraocular pressure in dog; type: in vivo; conditions: Conc. 0.1% (g/100 mL)
# Source text: U.S. patent application Ser. No. 11/553,143, filed on Oct. 26, 2006, incorporated by reference herein, describes the methods used to obtain the in vitro data in the table below.
# [2] = Ocular hyperemia in dog; type: in vivo; conditions: Conc. 0.1% (g/100 mL)
# [3] = Intraocular pressure in monkey; type: in vivo; conditions: Conc. 0.1% (g/100 mL)
# [4] = molecular target: T1, EP4 receptors (Homo sapiens, UniProt P35408); experiment: Radioligand binding, [3H]PGE2, HEK-293 cells stably expressing EP4 receptors; conditions: [3H]PGE2 competition
# T1 construct: expressed in transfected cells; host or cells: HEK-293
# Protocol: (§1) HEK-293 cells stably expressing the human or feline FP receptor, or EP1, EP2, or EP4 receptors were washed with TME buffer, scraped from the bottom of the flasks, and homogenized for 30 sec using a Brinkman PT 10/35 polytron. TME buffer was added to achieve a final 40 ml volume in the centrifuge tubes (the composition of TME is 100 mM TRIS base, 20 mM MgCl2, […]; 10N HCl is added to achieve a pH of 7.4).
# (§2) The cell homogenate was centrifuged at 19000 r.p.m. for 20 min at 4° C. using a Beckman Ti-60 rotor. The resultant pellet was resuspended in TME buffer to give a final 1 mg/ml protein concentration, as determined by Biorad assay. Radioligand binding competition assays vs. [^3H-]17-phenyl PGF2α (5 nM) were performed in a 100 μl volume for 60 min. Binding reactions were started by adding plasma membrane fraction. The reaction was terminated by the addition of 4 ml ice-cold TRIS-HCl buffer and rapid filtration through glass fiber GF/B filters using a Brandel cell harvester. The filters were washed 3 times with ice-cold buffer and oven dried for one hour.
# (§3) [^3H-]PGE2 (specific activity 180 Ci mmol) was used as the radioligand for EP receptors. [^3H]17-phenyl PGF2α was employed for FP receptor binding studies. Binding studies employing EP1, EP2, EP4 and FP receptors were performed in duplicate in at least three separate experiments. A 200 μl assay volume was used. Incubations were for 60 min at 25° C. and were terminated by the addition of 4 ml of ice-cold 50 mM TRIS-HCl, followed by rapid filtration through Whatman GF/B filters and three additional 4 ml washes in a cell harvester (Brandel). Competition studies were performed using a final concentration of 5 nM [^3H]-PGE2, or 5 nM [^3H] 17-phenyl PGF2α and non-specific binding determined with 10^−5M of unlabeled PGE2, or 17-phenyl PGF2α, according to receptor subtype studied.
# [5] = molecular target: T2, hEP4/Gqs5 (Homo sapiens, UniProt P35408); experiment: FLIPR calcium signal, HEK-293(EBNA) cells expressing hEP4/Gqs5; type: cell-based
# T2 construct: expressed in transfected cells; host or cells: HEK-293(EBNA)
# Protocol: HEK-293(EBNA) cells, stably expressing one type or subtype of recombinant human prostaglandin receptors (prostaglandin receptors expressed: hDP/Gqs5; hEP1; hEP2/Gqs5; hEP3A/Gqi5; hEP4/Gqs5; hFP; hIP; hTP), were cultured in 100 mm culture dishes in high-glucose DMEM medium containing 10% fetal bovine serum, 2 mM l-glutamine, 250 µg/ml geneticin (G418) and 200 μg/ml hygromycin B as selection markers, and 100 units/ml penicillin G, 100 µg/ml streptomycin and 0.25 μg/ml amphotericin B.
# Cells were seeded at a density of 5×10^4 cells per well in Biocoat® Poly-D-lysine-coated black-wall, clear-bottom 96-well plates (Becton-Dickinson) and allowed to attach overnight in an incubator at 37° C. Cells were then washed two times with HBSS-HEPES buffer (Hanks Balanced Salt Solution without bicarbonate and phenol red, 20 mM HEPES, pH 7.4) using a Denley Cellwash plate washer (Labsystems). After 45 minutes of dye-loading in the dark, using the calcium-sensitive dye Fluo-4 […] at a final concentration of 2 μM, plates were washed four times with HBSS-HEPES buffer to remove excess dye leaving 100 μl in each well. Plates were re-equilibrated to 37° C. for a few minutes.
# Cells were excited with an Argon laser at 488 nm, and emission was measured through a 510-570 nm bandwidth emission filter (FLIPR™, Molecular Devices, Sunnyvale, Calif.). Drug solution was added in a 50 µl volume to each well to give the desired final concentration. The peak increase in fluorescence intensity was recorded for each well. On each plate, four wells each served as negative (HBSS-HEPES buffer) and positive controls (standard agonists: BW245C (hDP); PGE2 (hEP1; hEP2/Gqs5; hEP3A/Gqi5; hEP4/Gqs5); PGF2α (hFP); carbacyclin (hIP); U-46619 (hTP), depending on receptor). The peak fluorescence change in each drug-containing well was then expressed relative to the controls.
# Compounds were tested in a high-throughput (HTS) or concentration-response (CoRe) format. In the HTS format, forty-four compounds per plate were examined in duplicates at a concentration of 10^−5 M. To generate concentration-response curves, four compounds per plate were tested in duplicates in a concentration range between 10^−5 and 10^−11 M. The duplicate values were averaged. In either, HTS or CoRe format each compound was tested on at least 3 separate plates using cells from different passages to give an n≧3.
# [6] = molecular target: EP2 (Homo sapiens, UniProt P43116); experiment: Competition binding, [3H]PGE2, HEK 293 cells stably expressing human EP2 receptors; parameters: expressed in transfected cells; host or cells: HEK 293; conditions: [3H]PGE2 competition
# Protocol: Competition binding experiments were performed in a medium containing Hank's balanced salt solution, Hepes 20 mM, pH 7.3, membranes (˜60 μg protein) or 2×10^5 cells from HEK 293 cells stably expressing human EP2 receptors, [^3H]PGE2 (10 nM) and various concentrations of test compounds in a total volume of 300 μl. Reaction mixtures were incubated at 23° C. for 60 min, and were filtered over Whatman GF/B filters under vacuum. Filters were washed three times with 5 ml ice-cold buffer containing 50 mM Tris/HCl (pH 7.3). Non-specific binding was estimated in the presence of excess unlabeled PGE2 (10 μM). Binding data fitted to the binding model for a single class of binding sites, using nonlinear regression analysis. IC50 values thus obtained were converted to Ki using the equation of Ki=(IC50/(1+[L]/KD) where [L] represents PGE2 concentration (10 nM) and KD the dissociation constant for [3H]PGE2 at human EP2 receptors (40 nM).
# as §1, §2, §3
# Sequence of EP2 (P43116 whole entry): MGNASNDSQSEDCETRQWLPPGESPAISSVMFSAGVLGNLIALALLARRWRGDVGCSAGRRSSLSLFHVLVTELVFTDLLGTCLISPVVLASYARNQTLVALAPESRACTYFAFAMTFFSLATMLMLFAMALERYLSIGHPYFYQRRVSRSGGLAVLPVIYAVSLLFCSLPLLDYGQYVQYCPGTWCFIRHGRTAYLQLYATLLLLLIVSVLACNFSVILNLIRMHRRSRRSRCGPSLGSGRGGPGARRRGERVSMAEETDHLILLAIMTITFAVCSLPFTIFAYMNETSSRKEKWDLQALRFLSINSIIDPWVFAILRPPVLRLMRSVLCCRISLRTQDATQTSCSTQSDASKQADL
# T1 sequence (P35408 whole entry): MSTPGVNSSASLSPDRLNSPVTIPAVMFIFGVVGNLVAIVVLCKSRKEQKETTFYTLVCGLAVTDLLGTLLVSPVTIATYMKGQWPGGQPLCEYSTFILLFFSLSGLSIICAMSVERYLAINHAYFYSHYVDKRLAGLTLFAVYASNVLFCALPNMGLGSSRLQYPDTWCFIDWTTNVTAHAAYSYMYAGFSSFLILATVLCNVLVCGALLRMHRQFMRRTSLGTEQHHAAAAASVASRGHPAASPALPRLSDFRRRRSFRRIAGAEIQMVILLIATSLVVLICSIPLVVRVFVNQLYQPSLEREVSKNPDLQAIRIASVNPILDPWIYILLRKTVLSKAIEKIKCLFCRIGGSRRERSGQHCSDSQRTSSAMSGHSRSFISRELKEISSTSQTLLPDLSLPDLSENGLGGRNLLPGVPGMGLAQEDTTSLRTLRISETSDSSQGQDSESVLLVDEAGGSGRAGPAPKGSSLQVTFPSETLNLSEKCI
# T2 sequence (P35408 whole entry): as above
SMILES,DOG Max. ΔIOP (%) [1] [%],DOG Max. hyperemia [2],MONKEY Max. ΔIOP (%) [3] [%],Ki [4] [nM],Ca2+ Signal-EC50(nM) EP4 [5],Ki [6] [nM]
CCCCCC(O)c1ccc([C@H]2C(=O)CC[C@@H]2CCCc2ccc(C(=O)OC(C)C)s2)cc1 (some centres unmarked) [compound 1],−37,1.6,,,,
CCCCCC(O)c1ccc([C@@H]2[C@@H](CCCc3ccc(C(=O)OC(C)C)s3)CCC2(Cl)Cl)cc1 (some centres unmarked) [compound 2],−6,0.4,−21,,,
CCCCCC(O)c1ccc([C@H]2C(=O)C=C[C@@H]2C/C=C\CCCC(=O)O)cc1 (some centres unmarked) [compound 4],,,,4330,notactive,> 10000
